Measured values: patent US20200360531A1, “ANTIBODY DRUG CONJUGATES (ADCS) WITH NAMPT INHIBITORS” (Bayer Aktiengesellschaft, priority 2018, published 2020)
Values joined by “and” are separate entries in the source; they are usually repeats but may differ in a detail not shown here. Equal values may be shown once. Read-outs that look alike come from different tables or passages of the source.

What was measured:
human NAMPT = biological target: T1, human NAMPT (Homo sapiens, UniProt P43490); assay: NAMPT biochemical assay (hNAMPT IC50), cascade assay with NMNAT1 and NAD/NADH-Glo detection; conditions: Table 2; replicate values on separate lines
T1 construct: N-terminally His6-tagged recombinant full length human NAMPT; His6 (N); made in house; host or cells: E. coli
Source text: NAMPT Biochemical Assay (hNAMPT IC50)
Nicotinamide phosphoribosyltransferase (NAMPT) inhibitory activity of compounds of the present invention was quantified employing a cascade assay as described in the following paragraphs. The assay couples the conversion of nicotinamide (NAM) to nicotinamide mononucleotide (NMN) by NAMPT with the conversion of NMN to […] adenine dinucleotide (NAD^+) by nicotinamide mononucleotide adenylyltransferase 1 (NMNAT1) and the subsequent quantification of the generated NAD^+ by a commercial detection kit (NAD/NADH-Glo™ Assay from Promega, #G9072).
N-terminally His6-tagged recombinant full length human NAMPT and N-terminally His6-tagged recombinant full length human NMNAT1, both expressed in E. coli and purified via Ni-NTA-affinity chromatography and consecutive size exclusion chromatography, were used as enzymes.
For the assay 50 nl of a 100 fold concentrated solution of the test compound in DMSO was pipetted into a white low volume 384 well microtiter plate (Greiner Bio-One, Frickenhausen, Germany), 2.5 μl of a solution of NAMPT in aqueous NMNAT1-containing assay buffer [50 mM Tris/HCl pH 7.5, 12 mM MgCl2, 0.6 mM adenosine-tri-phosphate (ATP), 1 nM NMNAT1, 0.02% (w/v) bovine serum albumin (Sigma-Aldrich #P7906), 0.001% (v/v) Tween-20 (Sigma-Aldrich #P7949)] were added and the mixture was incubated for 15 min at 22° C. to allow pre-binding of the test compounds to the enzyme before the start of the enzyme reaction. Then the reaction was started by the addition of 2.5 μl of a solution of NAM (300 nM=>final conc. in the 5 μl assay volume is 150 nM, Sigma-Aldrich #^47865) and 5-phosphorylribose-1-pyrophosphate pentasodium salt (PRPP, 1.2 μM=>final conc. in the 5 μl assay volume is 0.6 μM, Sigma-Aldrich P8296) in assay buffer and the resulting mixture was incubated for a reaction time of 20 min at 22° C. The concentration of NAMPT was adjusted depending of the activity of the enzyme lot and was chosen appropriate to have the assay in the linear range, typical final concentration in the 5 μl assay volume was 0.16 nM.
The resulting mixture was incubated 2 h at 22° C. to allow a steady-state of the detection system. Subsequently the generated luminescence was measured in a suitable luminescence reader, e.g. a Viewlux™ (Perkin-Elmer), and taken as a measure for the generated NAD^+.

MDA-MB-453 = assay: Cell proliferation assay, Cell Titer Glo (CTG) method, MDA-MB-453; assay type: cell-based
Protocol: (§1) Cell Proliferation Assay for Nampt-ADCs and Nampt-SMOLs
(§2) Cell Titer Glo (CTG) Method
(§3) To this end, 75 μL per well CTG solution (Promega, catalog #G755B and G756B) was added to cells in sister plates, incubated for 10 min, and luminescence was measured on a VICTOR V instrument (Perkin Elmer). After incubation for either 72 or 96 hrs (Table 1) in the presence of test compounds, 100 μl per well CTG solution was added to all test wells, incubated for 10 min and luminescence was measured on a VICTOR V instrument. […] The DRC software is a Biobook Spreadsheet that was developed by Bayer AG and Bayer Business Services on the IDBS E-Workbook Suite platform (IDBS: ID Business Solutions Ltd., Guildford, UK).

A549 C4.4a B4 = assay: Cell proliferation assay, Cell Titer Glo (CTG) method, A549 C4.4a B4; assay type: cell-based, human
Protocol: as §1, §2, §3

THP-1 = assay: Cell proliferation assay, Cell Titer Glo (CTG) method, THP-1; assay type: cell-based, human; conditions: Table 2, 72 h
Protocol: as §1, §2, §3

U251 MG = assay: Cell proliferation assay, Cell Titer Glo (CTG) method, U251 MG; assay type: cell-based; conditions: Table 2
Protocol: as §1, §2, §3

[1] = tested on: human breast and lung cancer cell line-derived in vivo models; conditions: in vitro and in vivo; cited from earlier work
[2] = tested on: murine renal cell carcinoma model RENCA; conditions: cited from earlier work
[3] = Homo sapiens, MDA-MB-453, 72 h, Table 2, read-out: MDA-MB-453 72 h IC50
[4] = Homo sapiens, A549, 72 h, Table 2, read-out: A549 C4.4a B4 72 h IC50

T1 sequence (P43490 whole entry): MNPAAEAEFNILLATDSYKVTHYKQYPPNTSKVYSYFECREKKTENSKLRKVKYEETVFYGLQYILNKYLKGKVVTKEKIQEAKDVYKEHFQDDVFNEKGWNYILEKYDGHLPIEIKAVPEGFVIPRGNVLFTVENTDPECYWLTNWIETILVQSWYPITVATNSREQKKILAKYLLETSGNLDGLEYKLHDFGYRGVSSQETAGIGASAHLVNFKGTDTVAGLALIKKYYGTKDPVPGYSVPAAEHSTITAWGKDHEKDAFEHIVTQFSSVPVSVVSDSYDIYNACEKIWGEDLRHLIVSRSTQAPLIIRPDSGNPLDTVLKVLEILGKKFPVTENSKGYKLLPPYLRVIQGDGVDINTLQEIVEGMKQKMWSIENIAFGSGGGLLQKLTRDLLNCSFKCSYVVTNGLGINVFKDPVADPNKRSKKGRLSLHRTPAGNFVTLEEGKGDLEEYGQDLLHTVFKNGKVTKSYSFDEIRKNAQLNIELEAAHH

| Compound | IC50 (human NAMPT) | IC50 (U251 MG; 72 h) | IC50 (MDA-MB-453; [3]) | IC50 (A549 C4.4a B4; [4]) | IC50 (THP-1; Homo sapiens, THP-1) | IC50 (U251 MG; Homo sapiens, U-251, 72 h) | IC50 (MDA-MB-453; Table 2, 72 h, read-out: MDA-MB-453 72 h IC50) | IC50 (A549 C4.4a B4; Table 2, 72 h, read-out: A549 C4.4a B4 72 h IC50) | IC50 (THP-1) | cytotoxic effects [1] | In vivo efficacy [2] |
| --- | --- | --- | --- | --- | --- | --- | --- | --- | --- | --- | --- |
| 2 or 3-{[(2R)-2-Amino-2-carboxyethyl]sulfanyl}-4-{[2-({6-[3-{4-[(1,3-dihydro-2H-pyrrolo[3,4-c]pyridine-2-carbonyl)amino]phenyl}-5-(5-methyl-1,3,4-oxadiazol-2-yl)-6-oxopyridazin-1(6H)-yl]hexyl}amino)-2-oxoethyl]amino}-4-oxobutanoic Acid [Example 34M] | 1170 pM and 1180 pM | > 300000 pM | – | – | – | – | 91200 pM | > 300000 pM | > 300000 pM | – | – |
| N#CN=C(NCCCCCCOc1ccc(Cl)cc1)Nc1ccncc1 [CHS-828, N-[6-(4-chlorophenoxy)hexyl]-N′-cyano-N″-4-pyridinyl-guanidine] | – | – | – | – | – | – | – | – | – | highly cytotoxic effects | – |
| Cc1nnc(C2CC(c3ccc(NC(=O)N4Cc5ccncc5C4)cc3)=NNC2=O)o1 (centres unmarked) [Example 7, N-{4-[5-(5-Methyl-1,3,4-oxadiazol-2-yl)-6-oxo-1,4,5,6-tetrahydropyridazin-3-yl]phenyl}-1,3-dihydro-2H-pyrrolo[3,4-c]pyridine-2-carboxamide] | 1020 pM and 1200 pM | – | 299 pM | > 300000 pM | 995 pM | 8950 pM | – | – | – | – | – |
| Cc1nnc(-c2cc(-c3ccc(NC(=O)N4Cc5ccncc5C4)cc3)nn(CCCCN)c2=O)o1 [Example 8, N-{4-[1-(4-Aminobutyl)-5-(5-methyl-1,3,4-oxadiazol-2-yl)-6-oxo-1,6-dihydropyridazin-3-yl]phenyl}-1,3-dihydro-2H-pyrrolo[3,4-c]pyridine-2-carboxamide] | 1040 pM and 1320 pM | – | 2660 pM | 93500 pM | 979 pM | 28100 pM | – | – | – | – | – |
| Cc1nnc(-c2cc(-c3ccc(NC(=O)N4Cc5ccncc5C4)cc3)nn(CCCCCCN)c2=O)o1 [Example 10, N-{4-[1-(6-Aminohexyl)-5-(5-methyl-1,3,4-oxadiazol-2-yl)-6-oxo-1,6-dihydropyridazin-3-yl]phenyl}-1,3-dihydro-2H-pyrrolo[3,4-c]pyridine-2-carboxamide] | 358 pM and 389 pM | – | 94.3 pM | 267000 pM | 4.71 pM | 8870 pM | – | – | – | – | – |
| O=C(Nc1ccc(-c2cc(-c3ccc4[nH]ncc4c3)c(=O)[nH]n2)cc1)N1Cc2ccncc2C1 [Example 16, N-{4-[5-(1H-indazol-5-yl)-6-oxo-1,6-dihydropyridazin-3-yl]phenyl}-1,3-dihydro-2H-pyrrolo[3,4-c]pyridine-2-carboxamide-hydrogen chloride] | 323 pM and 326 pM | 57 pM | < 30 pM | 23200 pM | < 3 pM | 41.1 pM | – | – | – | – | – |
| O=C1NN=C(c2ccc(NC(=O)N3Cc4ccncc4C3)cc2)CC1c1ccc2[nH]ncc2c1 (centres unmarked) [Example 17, N-{4-[5-(1H-indazol-5-yl)-6-oxo-1,4,5,6-tetrahydropyridazin-3-yl]phenyl}-1,3-dihydro-2H-pyrrolo[3,4-c]pyridine-2-carboxamide] | 218 pM and 346 pM | – | < 30 pM | 12400 pM | 38.5 pM | 642 pM | – | – | – | – | – |
| O=C(Nc1ccc(-c2cc(-c3cccc4[nH]ncc34)c(=O)[nH]n2)cc1)N1Cc2ccncc2C1 [Example 18, N-{4-[5-(1H-indazol-4-yl)-6-oxo-1,6-dihydropyridazin-3-yl]phenyl}-1,3-dihydro-2H-pyrrolo[3,4-c]pyridine-2-carboxamide] | 213 pM and 226 pM | 42.8 pM | < 30 pM | 58500 pM | ≤ 3 pM | < 30 pM | – | – | – | – | – |
| O=C(Nc1ccc(-c2cc(-c3ccc4cccnc4c3)c(=O)[nH]n2)cc1)N1Cc2ccncc2C1 [Example 24, N-{4-[6-oxo-5-(quinolin-7-yl)-1,6-dihydropyridazin-3-yl]phenyl}-1,3-dihydro-2H-pyrrolo[3,4-c]pyridine-2-carboxamide] | 241 pM and 295 pM | – | < 30 pM | 4920 pM | 9.96 pM | < 30 pM | – | – | – | – | – |
| NCCCCn1nc(-c2ccc(NC(=O)N3Cc4ccncc4C3)cc2)cc(-c2ccc3cccnc3c2)c1=O [Example 25, N-{4-[1-(4-Aminobutyl)-6-oxo-5-(quinolin-7-yl)-1,6-dihydropyridazin-3-yl]phenyl}-1,3-dihydro-2H-pyrrolo[3,4-c]pyridine-2-carboxamide] | 803 pM and 1150 pM | – | < 30 pM | 57100 pM | 22.7 pM | 428 pM | – | – | – | – | – |
| O=C(/C=C/c1cccnc1)NCCCCC1CCN(C(=O)c2ccccc2)CC1 [daporinad, (E)-N-[4-(I-benzoylpiperidin-4-yl)butyl]-3-(pyridine-3-yl)-acrylamide] | – | – | – | – | – | – | – | – | – | – | In vivo efficacy of daporinad was shown |

More lines, main results first:

| IC50 (human NAMPT) | IC50 (U251 MG; 72 h) | IC50 (MDA-MB-453; [3]) | IC50 (A549 C4.4a B4; [4]) | IC50 (THP-1; Homo sapiens, THP-1) | IC50 (U251 MG; Homo sapiens, U-251, 72 h) | Compound | IC50 (MDA-MB-453; Table 2, 72 h, read-out: MDA-MB-453 72 h IC50) | IC50 (A549 C4.4a B4; Table 2, 72 h, read-out: A549 C4.4a B4 72 h IC50) | IC50 (THP-1) | cytotoxic effects [1] | In vivo efficacy [2] |
| --- | --- | --- | --- | --- | --- | --- | --- | --- | --- | --- | --- |
| 267 pM and 288 pM | – | < 30 pM | 11000 pM | < 3 pM | < 30 pM | NCCCCCCn1nc(-c2ccc(NC(=O)N3Cc4ccncc4C3)cc2)cc(-c2cccc3ncccc23)c1=O [Example 6, N-{4-[1-(6-Aminohexyl)-6-oxo-5-(quinolin-5-yl)-1,6-dihydropyridazin-3-yl]phenyl}-1,3-dihydro-2H-pyrrolo[3,4-c]pyridine-2-carboxamide] | – | – | – | – | – |
| 457 pM and 717 pM | – | 35.7 pM | 97200 pM | 1210 pM | 4340 pM | Cc1nnc(-c2cc(-c3ccc(NC(=O)N4Cc5ccncc5C4)cc3)n[nH]c2=O)o1 [Example 9, N-{4-[5-(5-methyl-1,3,4-oxadiazol-2-yl)-6-oxo-1,6-dihydropyridazin-3-yl]phenyl}-1,3-dihydro-2H-pyrrolo[3,4-c]pyridine-2-carboxamide] | – | – | – | – | – |
| 2770 pM and 3200 pM | – | 436 pM | 227000 pM | 447 pM | 43700 pM | NCCCCN1N=C(c2ccc(NC(=O)N3Cc4ccncc4C3)cc2)C[C@](c2cccc3ncccc23)(C(F)(F)F)C1=O [Example 13, N-{4-[(5R)-1-(4-aminobutyl)-6-oxo-5-(quinolin-5-yl)-5-(trifluoromethyl)-1,4,5,6-tetrahydropyridazin-3-yl]phenyl}-1,3-dihydro-2H-pyrrolo[3,4-c]pyridine-2-carboxamide] | – | – | – | – | – |
| 156 pM and 229 pM | – | < 30 pM | 6390 pM | < 3 pM | < 30 pM | O=C(Nc1ccc(-c2cc(-c3ccc4[nH]ccc4c3)c(=O)[nH]n2)cc1)N1Cc2ccncc2C1 [Example 20, N-{4-[5-(1H-indol-5-yl)-6-oxo-1,6-dihydropyridazin-3-yl]phenyl}-1,3-dihydro-2H-pyrrolo[3,4-c]pyridine-2-carboxamide] | – | – | – | – | – |
| 393 pM and 470 pM | – | < 30 pM | 40500 pM | < 3 pM | < 30 pM | O=C1NN=C(c2ccc(NC(=O)N3Cc4ccncc4C3)cc2)CC1c1ccc2[nH]ccc2c1 (centres unmarked) [Example 21, N-{4-[5-(1H-Indol-5-yl)-6-oxo-1,4,5,6-tetrahydropyridazin-3-yl]phenyl}-1,3-dihydro-2H-pyrrolo[3,4-c]pyridine-2-carboxamide] | – | – | – | – | – |
